Measured values taken from ChEMBL document CHEMBL3885881, “DrugMatrix”.

Organism: Rattus norvegicus
Assay: DrugMatrix - Regimen: Daily Repeat
Assay type: toxicity, organism-based, Sprague-Dawley
Set-up: regimen Daily Repeat, gender Male, age 6-8 weeks
Conditions: in vivo, po, route oral GAVAGE, vehicle 100 % SALINE; for ABSOLUTE EOSINOPHIL / ABSOLUTE LYMPHOCYTE / ABSOLUTE MONOCYTE / ABSOLUTE SEGMENTED NEUTROPHIL / BASOPHIL / EOSINOPHIL / ERYTHROCYTE COUNT / HEMATOCRIT / HEMOGLOBIN / LEUKOCYTE COUNT / LYMPHOCYTE / MEAN CORPUSCULAR HEMOGLOBIN / MEAN CORPUSCULAR HEMOGLOBIN CONCENTRATION / MEAN CORPUSCULAR VOLUME / MONOCYTE / NEUTROPHIL / NUCLEATED RED BLOOD CELLS / PLATELET COUNT / ABSOLUTE BASOPHIL: tissue Blood; for ALANINE AMINOTRANSFERASE / ALBUMIN / ALKALINE PHOSPHATASE / ASPARTATE AMINOTRANSFERASE / BLOOD UREA NITROGEN / CARBON DIOXIDE / CHLORIDE / CHOLESTEROL / CREATINE PHOSPHOKINASE / CREATININE / GLUCOSE / LACTATE DEHYDROGENASE / LIPASE / PHOSPHORUS / POTASSIUM / SODIUM / TOTAL BILIRUBIN / TOTAL PROTEIN / URIC ACID: tissue Plasma
[1] = 29 mg/kg, 120 h, dose level Low, time 5 day
[2] = 200 mg/kg, 72 h, dose level High, time 3 day
[3] = 200 mg/kg, 120 h, dose level High, time 5 day

Cc1ccnc2c1NC(=O)c1cccnc1N2C1CC1 [NEVIRAPINE]
ABSOLUTE EOSINOPHIL [1]: 0 CELLS/uL
ABSOLUTE LYMPHOCYTE [1]: 5766.33 CELLS/uL
ABSOLUTE MONOCYTE [1]: 26.67 CELLS/uL
ABSOLUTE SEGMENTED NEUTROPHIL [1]: 340.33 CELLS/uL
BASOPHIL [1]: 0%
EOSINOPHIL [1]: 0%
ERYTHROCYTE COUNT [1]: 5.58 x10E6/uL
HEMATOCRIT [1]: 33.7%
HEMOGLOBIN [1]: 13.2 G/DL
LEUKOCYTE COUNT [1]: 6.13 x10E3/uL
LYMPHOCYTE [1]: 94.33%
MEAN CORPUSCULAR HEMOGLOBIN [1]: 23.7 pg
MEAN CORPUSCULAR HEMOGLOBIN CONCENTRATION [1]: 39.2 G/DL
MEAN CORPUSCULAR VOLUME [1]: 60.4 fL
MONOCYTE [1]: 0.33%
NEUTROPHIL [1]: 5.33%
NUCLEATED RED BLOOD CELLS [1]: 0 /100WBC
PLATELET COUNT [1]: 1219 x10E3/uL
ALANINE AMINOTRANSFERASE [1]: 55.67 u/L
ALBUMIN [1]: 4.23 G/DL
ALKALINE PHOSPHATASE [1]: 280.33 u/L
ASPARTATE AMINOTRANSFERASE [1]: 82.33 u/L
BLOOD UREA NITROGEN [1]: 15.33 mg/dL
CARBON DIOXIDE [1]: 34.33 mmol/L
CHLORIDE [1]: 98.67 MEQ/L
CHOLESTEROL [1]: 74.33 mg/dL
CREATINE PHOSPHOKINASE [1]: 403.67 u/L
CREATININE [1]: 0.39 mg/dL
GLUCOSE [1]: 132.33 mg/dL
LACTATE DEHYDROGENASE [1]: 98.67 u/L
LIPASE [1]: 11 u/L
PHOSPHORUS [1]: 10.8 mg/dL
POTASSIUM [1]: 6.38 MEQ/L
SODIUM [1]: 144.43 MEQ/L
TOTAL BILIRUBIN [1]: 0.17 mg/dL
TOTAL PROTEIN [1]: 5.7 G/DL
URIC ACID [1]: 0.87 mg/dL
ABSOLUTE BASOPHIL [2]: 0 CELLS/uL
ABSOLUTE EOSINOPHIL [2]: 0 CELLS/uL
ABSOLUTE LYMPHOCYTE [2]: 4383.33 CELLS/uL
ABSOLUTE MONOCYTE [2]: 11.67 CELLS/uL
ABSOLUTE SEGMENTED NEUTROPHIL [2]: 905 CELLS/uL
BASOPHIL [2]: 0%
EOSINOPHIL [2]: 0%
ERYTHROCYTE COUNT [2]: 5.28 x10E6/uL
HEMATOCRIT [2]: 32.53%
HEMOGLOBIN [2]: 12.53 G/DL
LEUKOCYTE COUNT [2]: 5.3 x10E3/uL
LYMPHOCYTE [2]: 83%
MEAN CORPUSCULAR HEMOGLOBIN [2]: 23.9 pg
MEAN CORPUSCULAR HEMOGLOBIN CONCENTRATION [2]: 38.7 G/DL
MEAN CORPUSCULAR VOLUME [2]: 61.8 fL
MONOCYTE [2]: 0.33%
NEUTROPHIL [2]: 16.67%
NUCLEATED RED BLOOD CELLS [2]: 0.67 /100WBC
PLATELET COUNT [2]: 1104 x10E3/uL
ALANINE AMINOTRANSFERASE [2]: 63 u/L
ALBUMIN [2]: 4.4 G/DL
ALKALINE PHOSPHATASE [2]: 260.67 u/L
ASPARTATE AMINOTRANSFERASE [2]: 84.67 u/L
BLOOD UREA NITROGEN [2]: 16.33 mg/dL
CARBON DIOXIDE [2]: 27.67 mmol/L
CHLORIDE [2]: 101.67 MEQ/L
CHOLESTEROL [2]: 85.33 mg/dL
CREATINE PHOSPHOKINASE [2]: 227 u/L
CREATININE [2]: 0.11 mg/dL
GLUCOSE [2]: 145 mg/dL
LACTATE DEHYDROGENASE [2]: 139.67 u/L
LIPASE [2]: 12.33 u/L
PHOSPHORUS [2]: 10.8 mg/dL
POTASSIUM [2]: 5.63 MEQ/L
SODIUM [2]: 147 MEQ/L
TOTAL BILIRUBIN [2]: 0.13 mg/dL
TOTAL PROTEIN [2]: 5.9 G/DL
URIC ACID [2]: 1.03 mg/dL
ABSOLUTE BASOPHIL [3]: 0 CELLS/uL
ABSOLUTE EOSINOPHIL [3]: 0 CELLS/uL
ABSOLUTE LYMPHOCYTE [3]: 5735 CELLS/uL
ABSOLUTE MONOCYTE [3]: 88 CELLS/uL
ABSOLUTE SEGMENTED NEUTROPHIL [3]: 443.67 CELLS/uL
BASOPHIL [3]: 0%
EOSINOPHIL [3]: 0%
ERYTHROCYTE COUNT [3]: 5.22 x10E6/uL
HEMATOCRIT [3]: 33.87%
HEMOGLOBIN [3]: 13.47 G/DL
LEUKOCYTE COUNT [3]: 6.27 x10E3/uL
LYMPHOCYTE [3]: 91.67%
MEAN CORPUSCULAR HEMOGLOBIN [3]: 25.83 pg
MEAN CORPUSCULAR HEMOGLOBIN CONCENTRATION [3]: 39.8 G/DL
MEAN CORPUSCULAR VOLUME [3]: 64.77 fL
MONOCYTE [3]: 1.33%
NEUTROPHIL [3]: 7%
NUCLEATED RED BLOOD CELLS [3]: 0.67 /100WBC
PLATELET COUNT [3]: 1370.67 x10E3/uL
ALANINE AMINOTRANSFERASE [3]: 55.67 u/L
ALBUMIN [3]: 4.03 G/DL
ALKALINE PHOSPHATASE [3]: 286 u/L
ASPARTATE AMINOTRANSFERASE [3]: 87 u/L
BLOOD UREA NITROGEN [3]: 13 mg/dL
CARBON DIOXIDE [3]: 33.67 mmol/L
CHLORIDE [3]: 99 MEQ/L
CHOLESTEROL [3]: 89.33 mg/dL
CREATINE PHOSPHOKINASE [3]: 578.67 u/L
CREATININE [3]: 0.38 mg/dL
GLUCOSE [3]: 136 mg/dL
LACTATE DEHYDROGENASE [3]: 142 u/L
LIPASE [3]: 10.33 u/L
PHOSPHORUS [3]: 10.57 mg/dL
POTASSIUM [3]: 6.07 MEQ/L
SODIUM [3]: 146.23 MEQ/L
TOTAL BILIRUBIN [3]: 0.13 mg/dL
TOTAL PROTEIN [3]: 6.13 G/DL
URIC ACID [3]: 0.63 mg/dL
